Source: patent US20260262643A1, “HERBICIDAL BENZOXAZINES” (FMC CORPORATION, priority 2022, published 2026)

Experiments:
barnyardgrass [1] = assay: Test B flooded paddy test; assay type: in vivo, Echinochloa crus-galli; settings: 250 g ai/ha, Flood, 13 days, 0 to 100 scale (0 no effect, 100 complete control)
How it was run: (§1)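 Application into standing water (3 cm above soil) at the two-leaf stage; flood depth held constant. Evaluation: day 13, visual comparison with controls, 0 = no injury, 100 = complete control.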

corn [2] = assay: Test A preemergence; assay type: in vivo, Zea mays; settings: visual injury after 10 days, 0 to 100 scale, 0 is no effect, 100 is complete control
How it was run: (§2)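 Plants were grown in loam and sand and treated preemergence or postemergence (one- to two-leaf stage, 2–10 cm) with compound in solvent plus surfactant. Response was scored against untreated controls after 10 greenhouse days, where 0 means no effect and 100 complete control.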

soybean [3] = assay: Test A preemergence; assay type: in vivo, Glycine max; settings: visual injury after 10 days, 0 to 100 scale, 0 is no effect, 100 is complete control
How it was run: as §2

blackgrass [4] = assay: Test A postemergence; assay type: in vivo, Alopecurus myosuroides; settings: postemergence, 10 days
How it was run: as §2

foxtail, giant [5] = assay: Test A postemergence; assay type: in vivo, Setaria faberi; settings: postemergence, 10 days
How it was run: as §2

ryegrass, Italian [6] = assay: Test A preemergence; assay type: in vivo, Lolium multiflorum; settings: visual injury after 10 days, 0 to 100 scale, 0 is no effect, 100 is complete control
How it was run: as §2

wheat [7] = assay: Test A preemergence; assay type: in vivo, Triticum aestivum; settings: visual injury after 10 days, 0 to 100 scale, 0 is no effect, 100 is complete control
How it was run: as §2

pigweed, palmer [8] = assay: Test A postemergence; assay type: in vivo, Amaranthus palmeri; settings: postemergence, 10 days
How it was run: as §2

pigweed, palmer [9] = assay: Test A preemergence; assay type: in vivo, Amaranthus palmeri; settings: visual injury after 10 days, 0 to 100 scale, 0 is no effect, 100 is complete control
How it was run: as §2

horseweed = assay: Test A postemergence; assay type: in vivo, Erigeron canadensis; settings: postemergence, 10 days
How it was run: as §2

kochia [10] = assay: Test A postemergence; assay type: in vivo, Bassia scoparia; settings: postemergence, 10 days
How it was run: as §2

corn [11] = assay: Test A postemergence; assay type: in vivo, Zea mays; settings: postemergence, 10 days
How it was run: as §2

rice = assay: Test B flooded paddy test; assay type: in vivo, Oryza sativa; settings: 250 g ai/ha, Flood, 13 days, 0 to 100 scale (0 no effect, 100 complete control)
How it was run: as §1

wheat [12] = assay: Test A postemergence; assay type: in vivo, Triticum aestivum; settings: postemergence, 10 days
How it was run: as §2

galium = assay: Test A postemergence; assay type: in vivo, Galium aparine; settings: postemergence, 10 days
How it was run: as §2

ryegrass, Italian [13] = assay: Test A postemergence; assay type: in vivo, Lolium multiflorum; settings: postemergence, 10 days
How it was run: as §2

kochia [14] = assay: Test A preemergence; assay type: in vivo, Bassia scoparia; settings: visual injury after 10 days, 0 to 100 scale, 0 is no effect, 100 is complete control
How it was run: as §2

barnyardgrass [15] = assay: Test A preemergence; assay type: in vivo, Echinochloa crusgalli; settings: visual injury after 10 days, 0 to 100 scale, 0 is no effect, 100 is complete control
How it was run: as §2

blackgrass [16] = assay: Test A preemergence; assay type: in vivo, Alopecurus myosuroides; settings: visual injury after 10 days, 0 to 100 scale, 0 is no effect, 100 is complete control
How it was run: as §2

foxtail, giant [17] = assay: Test A preemergence; assay type: in vivo, Setaria faberi; settings: visual injury after 10 days, 0 to 100 scale, 0 is no effect, 100 is complete control
How it was run: as §2

ducksalad = assay: Test B flooded paddy test; assay type: in vivo, Heteranthera limosa; settings: 250 g ai/ha, Flood, 13 days, 0 to 100 scale (0 no effect, 100 complete control)
How it was run: as §1

oat, wild [18] = assay: Test A postemergence; assay type: in vivo, Avena fatua; settings: postemergence, 10 days
How it was run: as §2

soybean [19] = assay: Test A postemergence; assay type: in vivo, Glycine max; settings: 500 g ai/ha, postemergence, 10 days, visual injury, 0 to 100 scale (0 no effect, 100 complete control)
How it was run: as §2

ragweed [20] = assay: Test A preemergence; assay type: in vivo, Ambrosia artemisiifolia; settings: visual injury after 10 days, 0 to 100 scale, 0 is no effect, 100 is complete control
How it was run: as §2

barnyardgrass [21] = assay: Test A postemergence; assay type: in vivo, Echinochloa crusgalli; settings: postemergence, 10 days
How it was run: as §2

ragweed [22] = assay: Test A postemergence; assay type: in vivo, Ambrosia artemisiifolia; settings: postemergence, 10 days
How it was run: as §2

oat, wild [23] = assay: Test A preemergence; assay type: in vivo, Avena fatua; settings: visual injury after 10 days, 0 to 100 scale, 0 is no effect, 100 is complete control
How it was run: as §2

sedge, umbrella = assay: Test B flooded paddy test; assay type: in vivo, Cyperus difformis; settings: 250 g ai/ha, Flood, 13 days, 0 to 100 scale (0 no effect, 100 complete control)
How it was run: as §1

[24] = 125 g ai/ha, 0 to 100 scale, 0 no effect, 100 complete control
[25] = 500 g ai/ha, visual injury, 0 to 100 scale (0 no effect, 100 complete control)

SMILES: C=CCOc1ccc(-n2cnc(C(C)C)n2)cc1C(=O)N1C[C@H](C)Oc2c(Cl)cccc21 [Compound 110]
- Plant response rating, Barnyardgrass (barnyardgrass [1]): 55
- Plant response rating, Corn (corn [2]; 125 g ai/ha): 0
- Plant response rating, Corn (corn [2]; 500 g ai/ha): 50
- Plant response rating, Soybean (soybean [3]; 125 g ai/ha): 40
- Plant response rating, Soybean (soybean [3]; 500 g ai/ha): 60
- Blackgrass plant response rating (blackgrass [4]; [24]): 0
- Plant response rating, Blackgrass (blackgrass [4]; [25]): 50
- Foxtail, Giant plant response rating (foxtail, giant [5]; [24]): 40
- Plant response rating, Foxtail, Giant (foxtail, giant [5]; [25]): 90
- Plant response rating, Ryegrass, Italian (ryegrass, Italian [6]; 125 g ai/ha): 70
- Plant response rating, Ryegrass, Italian (ryegrass, Italian [6]; 500 g ai/ha): 100
- Plant response rating, Wheat (wheat [7]; 125 g ai/ha): 20
- Plant response rating, Wheat (wheat [7]; 500 g ai/ha): 30
- Pigweed, Palmer plant response rating (pigweed, palmer [8]; [24]): 40
- Plant response rating, Pigweed, Palmer (pigweed, palmer [8]; [25]): 50
- Plant response rating, Pigweed, Palmer (pigweed, palmer [9]; 125 g ai/ha): 90
- Plant response rating, Pigweed, Palmer (pigweed, palmer [9]; 500 g ai/ha): 100
- Horseweed plant response rating (horseweed; [24]): 0
- Plant response rating, Horseweed (horseweed; [25]): 0
- Kochia plant response rating (kochia [10]; [24]): 70
- Plant response rating, Kochia (kochia [10]; [25]): 90
- Corn plant response rating (corn [11]; [24]): 10
- Plant response rating, Corn (corn [11]; [25]): 50
- Plant response rating, Rice (rice): 0
- Wheat plant response rating (wheat [12]; [24]): 10
- Plant response rating, Wheat (wheat [12]; [25]): 20
- Galium plant response rating (galium; [24]): 100
- Plant response rating, Galium (galium; [25]): 100
- Ryegrass, Italian plant response rating (ryegrass, Italian [13]; [24]): 20
- Plant response rating, Ryegrass, Italian (ryegrass, Italian [13]; [25]): 80
- Plant response rating, Kochia (kochia [14]; 125 g ai/ha): 0
- Plant response rating, Kochia (kochia [14]; 500 g ai/ha): 20
- Plant response rating, Barnyardgrass (barnyardgrass [15]; 125 g ai/ha): 50
- Plant response rating, Barnyardgrass (barnyardgrass [15]; 500 g ai/ha): 90
- Plant response rating, Blackgrass (blackgrass [16]; 125 g ai/ha): 40
- Plant response rating, Blackgrass (blackgrass [16]; 500 g ai/ha): 70
- Plant response rating, Foxtail, Giant (foxtail, giant [17]; 125 g ai/ha): 90
- Plant response rating, Foxtail, Giant (foxtail, giant [17]; 500 g ai/ha): 100
- Plant response rating, Ducksalad (ducksalad): 0
- Oat, Wild plant response rating (oat, wild [18]; [24]): 0
- Plant response rating, Oat, Wild (oat, wild [18]; [25]): 30
- Plant response rating, Soybean (soybean [19]): 100
- Plant response rating, Ragweed (ragweed [20]; 125 g ai/ha): 0
- Plant response rating, Ragweed (ragweed [20]; 500 g ai/ha): 40
- Barnyardgrass plant response rating (barnyardgrass [21]; [24]): 20
- Plant response rating, Barnyardgrass (barnyardgrass [21]; [25]): 50
- Ragweed plant response rating (ragweed [22]; [24]): 10
- Plant response rating, Ragweed (ragweed [22]; [25]): 60
- Plant response rating, Oat, Wild (oat, wild [23]; 125 g ai/ha): 0
- Plant response rating, Oat, Wild (oat, wild [23]; 500 g ai/ha): 50
- Plant response rating, Sedge, Umbrella (sedge, umbrella): 65
